Laboratory results as given in PMC4741387 (Biochemistry, 2015).
Residue numbers refer to the chain shown, from its start.

Tests used:
Experiment in all cases: fluorescence titration of rhodamine-labelled protein
[1] = target: T1, rho-PBP: (A17C,A197C)PBP labeled with 6-IATR (PstS phosphate binding protein) (Escherichia coli, UniProt P0AG82, A222C/A42C/G165A)
T1 sequence (P0AG82 26-346 A42C/G165A/A222C): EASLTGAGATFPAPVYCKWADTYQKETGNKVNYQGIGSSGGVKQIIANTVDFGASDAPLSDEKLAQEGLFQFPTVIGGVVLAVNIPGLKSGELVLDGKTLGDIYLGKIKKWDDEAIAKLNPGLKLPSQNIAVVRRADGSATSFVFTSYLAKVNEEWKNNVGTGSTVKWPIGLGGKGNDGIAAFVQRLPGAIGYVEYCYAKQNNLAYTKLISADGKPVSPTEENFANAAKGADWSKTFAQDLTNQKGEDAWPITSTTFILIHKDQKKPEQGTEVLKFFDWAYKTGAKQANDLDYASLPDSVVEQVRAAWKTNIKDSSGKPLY

[2] = target: T2, (K229C,E302C)PBP labeled with 6-IATR (PstS phosphate binding protein) (Escherichia coli, UniProt P0AG82, E327C/G165A/K254C)
T2 sequence (P0AG82 26-346 G165A/K254C/E327C): T1 sequence (P0AG82 26-346 A42C/G165A/A222C) with C17A, C197A, K229C, E302C

[3] = target: T3, rho-PBP: (A17C,A197C)PBP labeled with 6-IATR (PstS phosphate binding protein) (Escherichia coli, UniProt P0AG82, A222C/A42C/S63A)
T3 sequence (P0AG82 26-346 A42C/S63A/A222C): T1 sequence (P0AG82 26-346 A42C/G165A/A222C) with S38A, A140G

[4] = target: T4, rho-PBP: (A17C,A197C)PBP labeled with 6-IATR (PstS phosphate binding protein) (Escherichia coli, UniProt P0AG82, A222C/A42C/G165A/S189K/S64D)
T4 sequence (P0AG82 26-346 A42C/S64D/G165A/S189K/A222C): T1 sequence (P0AG82 26-346 A42C/G165A/A222C) with S39D, S164K

[5] = target: T5, rho-PBP: (A17C,A197C)PBP labeled with 6-IATR (PstS phosphate binding protein) (Escherichia coli, UniProt P0AG82, A222C/A42C/T35A)
T5 sequence (P0AG82 26-346 T35A/A42C/A222C): T1 sequence (P0AG82 26-346 A42C/G165A/A222C) with T10A, A140G

[6] = target: T6, rho-PBP: (A17C,A197C)PBP labeled with 6-IATR (PstS phosphate binding protein) (Escherichia coli, UniProt P0AG82, A222C/A42C/R160A)
T6 sequence (P0AG82 26-346 A42C/R160A/A222C): T1 sequence (P0AG82 26-346 A42C/G165A/A222C) with R135A, A140G

Work on O=P(O)(O)O [inorganic phosphate] yielded a Kd [1] of 70 ± 17 µM, a Kd [2] of 220 ± 11 µM and a Kd [3] of 68 ± 9 µM. For the same molecule, the Kd [4] was 40 ± 4 µM, the Kd [5] was 32 ± 2 µM and the Kd [6] was under 1 µM.
